Reference: US20120003308A1, “Pharmaceutical Composition Comprising Aliskiren” (priority 2009, published 2012)

Test: Bioequivalence study of fixed combination versus free combination, single dose, crossover
Parameters: species or system human
Conditions: in vivo
Experimental: Pharmacokinetic measurements were performed on blood collected from each subject. […] The PK parameters were determined in plasma, using non-compartmental methods.

| Compound | intra-subject coefficient of variation (CV) for AUC0-inf of aliskiren | intra-subject coefficient of variation (CV) for AUC0-tlast of aliskiren | intra-subject coefficient of variation (CV) for Cmax of aliskiren | intra-subject CV for AUC0-flast of valsartan | intra-subject CV for AUC0-inf of valsartan | intra-subject CV for Cmax of valsartan |
| --- | --- | --- | --- | --- | --- | --- |
| COCCCOc1cc(C[C@@H](C[C@H](N)[C@@H](O)C[C@H](C(=O)NCC(C)(C)C(N)=O)C(C)C)C(C)C)ccc1OC [Aliskiren, 2(S),4(S),5(S),7(S)—N-(3-amino-2,2-dimethyl-3-oxopropyl)-2,7-di(1-methylethyl)-4-hydroxy-5-amino-8-[4-methoxy-3-(3-methoxy-propoxy)phenyl]-octanamide] | 33.19% | 33.98% | 51.90% |  |  |  |
| CCCCC(=O)N(Cc1ccc(-c2ccccc2-c2nnn[nH]2)cc1)[C@H](C(=O)O)C(C)C [Valsartan] |  |  |  | 28.56% | 28.33% | 40.37% |
